The test system of one assay is JAK/Stat pathway. The assay is described as follows: U937 IFNγ ICAM1 FACS assay. The format is cell-based, human. Conditions: U937 cells, IFNγ 10 ng/mL, 18-24 hours, ICAM-1 expression; read-out: Example 6 IC50. How it is done:
U937 human monocytic cells up-regulate ICAM-1 (CD54) surface expression in response to a variety of different stimuli. Therefore, using ICAM-1 expression as readout, compound effects on different signaling pathways can be assessed in the same cell type. IFNγ up-regulates ICAM-1 through activation of the JAK/Stat pathway. In this example, the up-regulation of ICAM-1 by IFNγ was assessed.
U937 cells were grown in 10% RPMI. The cells were then plated at a concentration of 100,000 cells per 160 μL in 96 well flat bottom plates. […] Then 4 μL of test compound was transferred to 76 μL of 10% RPMI resulting in a 10× solution (100 μM test compound, 5% DMSO). For control wells, 4 μL of DMSO was diluted into 76 μL 10% RPMI.
The assay was performed in duplicate with 8 points (8 3-fold dilution concentrations from […]) and with 4 wells of DMSO only (control wells) under stimulated conditions and 4 wells of DMSO only under unstimulated conditions.
The diluted compound plate was mixed 2× using a multimek (Beckman Coulter of Brea, Calif.) and then 20 μL of the diluted compounds was transferred to the 96 well plate containing 160 μL of cells, which were then mixed again twice at low speeds. The cells and compounds were then pre-incubated for 30 minutes at 37° C. with 5% CO2.
The 10× stimulation mix was made by preparing a 100 ng/mL solution of human IFNγ in 10% RPMI. […] The cells were kept under conditions for stimulation for 18-24 hours at 37° C. with 5% CO2.
The cells were transferred to a 96 well round bottom plate for staining and then kept on ice for the duration of the staining procedure. Cells were spun down at 1000 rpm for 5 minutes at 4° C., following which the supernatant was removed. Following removal of the supernatant, 1 μL APC conjugated mouse anti-human ICAM-1 antibody was added per 100 μL FACS buffer. The cells were then incubated on ice in the dark for 30 minutes. Following incubation, 150 μL of FACS buffer was added and the cells were centrifuged at 1000 rpm for 5 minutes at 4° C., following which the supernatant was removed. […]
Both % live cells and ICAM-1 expression was analyzed. […]
A general note: In flow cytometry, cells or beads pass a laser one at a time.

The subject of the next assay is JAK1 and JAK3 kinases. The assay is described as follows: Ramos B-cell line stimulated with IL-4, CD23 upregulation (FACS). In kind it is cell-based, human. Conditions: Ramos B cells, IL-4 50 units/mL, 20-24 hours, CD23 staining; read-out: Example 3 IC50. As for the experimental part: One means of assaying for JAK inhibition is detection of the effect of compounds I and II on the upregulation of downstream gene products. In the Ramos/IL4 assay, B-cells are stimulated with the cytokine Interleukin-4 (IL-4) leading to the activation of the JAK/Stat pathway through phosphorylation of the JAK family kinases, JAK1 and JAK3, which in turn phosphorylate and activate the transcription factor Stat-6. […] Twenty to 24 hours post stimulation, cells are stained for upregulation of CD23 and analyzed using flow cytometry (FACS). […] An exemplary assay of this type is described in greater detail below. B-cells stimulated with cytokine Interleukin-4 (IL-4) activate the JAK/Stat pathway through phosphorylation of the JAK family kinases, JAK-1 and JAK-3, which in turn phosphorylate and activate the transcription factor Stat-6. […] To study the effect of inhibitors on the JAK family kinases, human Ramos B cells are stimulated with human IL-4. The Ramos B-cell line was acquired from [NT] No. CRL-1596). The cells were cultured in RPMI 1640 (Cellgro, MediaTech, Inc., Herndon, Va., Cat No. 10-040-CM) with 10% fetal bovine serum (FBS), heat inactivated (JRH Biosciences, Inc, Lenexa, Kans., Cat No. 12106-500M) according to ATCC propagation protocol. Cells were maintained at a density of 3.5×10^5. The day before the experiment, Ramos B-cells were diluted to 3.5×10^5 cells/mL to ensure that they were in a logarithmic growth phase. Cells were spun down and suspended in RPMI with 5% serum. 5×10^4 cells were used per point in a 96-well tissue culture plate. Cells were pre-incubated with compound or DMSO (Sigma-Aldrich, St. Louis, Mo., Cat No. D2650) vehicle control for 1 hour in a 37° C. incubator. Cells were then stimulated with IL-4 (Peprotech Inc., Rocky Hill, N.J., Cat No. 200-04) for a final concentration of 50 units/mL for 20-24 hours. Cells were then spun down and stained with anti-CD23-PE(BD Pharmingen, San Diego, Calif., Cat No. 555711) and analyzed by FACS. Detection was performed using a BD LSR I System Flow Cytometer, purchased from Becton Dickinson Biosciences of San Jose, Calif.

Where a name gives a salt, the structure may show the parent alone.

What is called IC50 is the concentration at which inhibition is half-maximal. In the case of `C#CCOc1ccc(Nc2nc(Nc3ccc(C)c(S(=O)(=O)NC(=O)CC)c3)ncc2F)cc1` [VI, 5-Fluoro-N2-[4-methyl-3-(N-propionylaminosulfonyl)phenyl]-N4-[4-(2-propynyloxy)phenyl]-2,4-pyrimidinediamine Arginine Salt], the half-inhibitory concentration (IC50) in the assay on JAK/Stat pathway came out at 0.424 µM; with JAK1 and JAK3 kinases, 0.104 µM.

The values are drawn from patent publication US8497279B2, “Treatment for discoid lupus” (Rigel Pharmaceuticals, Inc., priority 2011, dated 2013).
